{"source": "patent US20230257383A1", "about": "“COMPOUND SERVING AS BTK INHIBITOR, PREPARATION METHOD THEREFOR, AND USE THEREOF” (CHENGDU HYPERWAY PHARMACEUTICALS CO., LTD., priority 2020, published 2023)", "key": {"[1]": {"test_system": "NCI-N87 cell proliferation", "test": "In vitro cell proliferation inhibitory activity test (CTG), NCI-N87", "assay_type": "cell-based", "settings": "Homo sapiens", "description": "(§1) Test Example 4: In Vitro Cell Proliferation Inhibitory Activity Test\n(§2) Cells were cultured in 1640 medium, added with 10% inactivated FBS and 1% double antibiotics, and cultured at 37° C. and 5% CO2.\n(§3) (1) Cells were routinely cultured until the cell density was 80%-90%, and the cells were harvested when their number reached the requirement.\n(§4) (2) Cells were resuspended with corresponding culture medium, counted, and prepared into cell suspension at appropriate density.\n(§5) (3) The cell suspension was added to a 96-well plate, 100 μL per well.\n(§6) (4) Cells were cultured overnight in a 37° C., 5% CO2 incubator.\n(§7) (1) The compounds to be tested were diluted with DMSO to make a stock solution with a final concentration of 20 mM for later use.\n(§8) (2) The stock solution was diluted 10 times from 20 mM to 2 mM with DMSO, and then diluted 3 times from 2 mM to 9 concentrations.\n(§9) (3) The blank control wells were cells plus 0.5% DMSO, as high-reading control wells.\n(§10) (4) Wells with no cells and only medium were used as low-reading control wells.\n(§11) 4: Cell treatment with compound\n(§12) (1) 24 h after the cells were plated, the compounds acted alone, and 99 μL of growth medium was added to each well, followed by 1 μL of the compound prepared in step 3. The plate was shaken gently to mix uniformly, and then placed in a 37° C., 5% CO2 incubator.\n(§13) (2) The cell plate was placed in an incubator for 72 h.\n(§14) 5: Detection by CTG method\n(§15) (1) The cell plate to be tested was placed at room temperature for 30 min, and 100 μL of medium was discarded from each well.\n(§16) (2) 100 μL of CTG reagent (CelltiterGlo kit) was added to each well, placed on a fast shaker for 2 min, and stood at room temperature in the dark for 30 min.\n(§17) (3) The chemiluminescent signal value was read with the Envision instrument.\n(§18) IC50 was calculated by using GraphPad Prism 8 software. The IC50 (half inhibitory concentration) of the compound was derived using the following nonlinear fitting formula, and the results are shown in the following table:\n(§19) Y=Bottom+(Top−Bottom)/(1+10^((Log IC50−X)×HillSlope))\n(§20) X: log value of compound concentration, Y: inhibition rate (% inhibition)\n(§21) Inhibition rate (% inhibition)=(reading of high-reading control well-reading of compound well)/(reading of high-reading control well-reading of low-reading control well)×100"}, "BT474 cell proliferation": {"test_system": "BT474 cell proliferation", "test": "In vitro cell proliferation inhibitory activity test (CTG), BT474", "assay_type": "cell-based", "settings": "Homo sapiens, BT-474, BT474 cell proliferation", "description": "as §1, §2, §3, §4, §5, §6, §7, §8, §9, §10, §11, §12, §13, §14, §15, §16, §17, §18, §19, §20, §21"}, "TMD8 cell proliferation": {"test_system": "TMD8 cell proliferation", "test": "In vitro cell proliferation inhibitory activity test (CTG), TMD8", "assay_type": "cell-based", "settings": "Homo sapiens, TMD8, 72 h, TMD8 cells", "description": "as §1, §2, §3, §4, §5, §6, §7, §8, §9, §10, §11, §12, §13, §14, §15, §16, §17, §18, §19, §20, §21"}, "DOHH2 cell proliferation": {"test_system": "DOHH2 cell proliferation", "test": "In vitro cell proliferation inhibitory activity test (CTG), DOHH2", "assay_type": "cell-based", "settings": "Homo sapiens, DOHH-2", "description": "as §1, §2, §3, §4, §5, §6, §7, §8, §9, §10, §11, §12, §13, §14, §15, §16, §17, §18, §19, §20, §21"}, "[2]": {"test": "Liver microsome metabolic stability test (rat)", "assay_type": "in vitro ADME", "settings": "liver microsomes, read-out: CLint (μL/min/mg) Rat", "description": "(§22) 1: To the sample wells of T0, T5, T10, T20, T30, T60 and NCF60, 10 μL of the test or reference working solution and 80 μL of microsome working solution (hepatic microsome with a protein concentration of 0.5 mg/mL) were added, and to Blank60 well, only the microsome working solution was added. Then samples of the Blank60, T5, T10, T20, T30 and T60 other than TO and NCF60 were placed in a 37° C. water bath and pre-incubated for about 10 min.\n(§23) 2: To the TO sample well, 300 μL of stop solution (containing 200 ng/mL tolbutamide and 200 ng/mL labetalol in acetonitrile solution) was added first, followed by 10 μL of NADPH regeneration system working solution.\n(§24) 3: After the pre-incubation of Blank60, T5, T10, T20, T30 and T60 incubation plates, 10 μL of NADPH regeneration system working solution was added to each sample well to start the reaction, and 10 μL of 100 mM potassium phosphate buffer was added to the NCF60 sample well.\n(§25) 4: After incubation for an appropriate time (such as 5, 10, 20, 30 and 60 min), to each test sample well and control well of the Blank60, T5, T10, T20, T30, T60 and NCF60 plates, 300 μL of stop solution was added to terminate the reaction.\n(§26) 5: All sample plates were shaken to mix well and centrifuged at 4000 rpm for 20 min, and 100 μL of the supernatant of the test sample or control sample was taken and diluted with 300 μL of pure water for LC-MS/MS analysis.\n(§27) 6: Data analysis: T1/2 and CLint(mic) (μL/min/mg) values were calculated according to the first-order elimination kinetics. The first-order elimination kinetics equation was: […]"}, "[3]": {"test": "Blood-brain barrier permeability test, oral, SD rats", "assay_type": "in vivo", "settings": "rat, oral 10 mg/kg single dose", "description": "Test Example 6: Blood-Brain Barrier Permeability Test\nEach test compound was administered orally at a single dose of 10 mg/kg to SD rats for pharmacokinetic study. Each group included 9 rats. The test compound was dissolved in 5% DMSO+10% solutol+85% saline, vortexed for 1-2 min, and ultrasonicated for 5-10 min to prepare into a colorless, transparent and clear administration solution. Animals were fasted overnight before administration. 1 h, 2 h, and 4 h after administration, three SD rats were selected from each group to take about 0.2-0.3 mL of blood through their orbit. The blood sample was placed on ice once collected, and centrifuged to separate the plasma within 15 min (centrifugation conditions: 8000 rpm, 1 min, room temperature). The collected plasma was stored at −20° C. before analysis. Immediately after blood collection, the cerebrospinal fluid and brain tissue were collected. The cerebrospinal fluid was draw out by dural puncture with a micro-sampler syringe under direct vision. Namely, about 100 μl of cerebrospinal fluid was collected with a 100 μl micro sample syringe from the rat that was anesthetized by chloral hydrate, with the head-fixed, the back hair-cut off, a transverse incision (2 cm) made at the line connecting the roots of the two ears, and the muscle layer of the neck and skull base bluntly scraped to expose the foramen magnum. The cerebrospinal fluid was stored at −20° C. before analysis. The rat then was sacrificed immediately, with its head cut off. The dissected brain tissue, with the surface capillaries peeled off, was weighed, added with 3 times the amount of cold saline, homogenized by a homogenizer for 1 min, and stored at −20° C. before analysis. 20 μL of plasma sample and brain homogenate sample was respectively added into 200 μL of working internal standard solution (the same volume of vehicle was added to the blank instead of internal standard), vortexed for 1 min, and centrifuged at 13500 rpm for 10 min. 100 μL of the supernatant was taken and analyzed by LC-MS/MS. 20 μL of the cerebrospinal fluid was added into 60 μL of working internal standard solution (the same volume of vehicle, instead of internal standard, was added to the blank), vortexed for 1 min, and centrifuged at 13500 rpm for 10 min. 50 μL of the supernatant was taken and analyzed by LC-MS/MS."}, "[4]": {"test": "Liver microsome metabolic stability test (human)", "assay_type": "in vitro ADME", "settings": "liver microsomes, read-out: CLint (μL/min/mg) Human", "description": "as §22, §23, §24, §25, §26, §27"}}, "note": "Like-named read-outs stand apart in the source and are kept apart here.", "data": [{"smiles": "Nc1nccn2c(C34CCC(CO)(CC3)OC4)nc(-c3ccc(C(F)(F)c4cccc(F)c4)cc3)c12", "note": "[Example 142]", "values": [{"measurement": "IC50", "setting": "[1]", "result": 0.106, "unit": "µM"}, {"measurement": "IC50", "setting": "BT474 cell proliferation", "result": 0.153, "unit": "µM"}]}, {"smiles": "Nc1nccn2c(C34CCC(CO)(CC3)OC4)nc(-c3ccc(C(F)(F)c4cccc(C5CC5)c4)cc3)c12", "note": "[Example 143]", "values": [{"measurement": "IC50", "setting": "BT474 cell proliferation", "result": 0.467, "unit": "µM"}]}, {"smiles": "Nc1nccn2c(C34CCC(CO)(CC3)OC4)nc(-c3ccc(C(F)(F)c4c(F)c(F)cc(F)c4F)cc3)c12", "note": "[Example 144]", "values": [{"measurement": "IC50", "setting": "BT474 cell proliferation", "result": 0.191, "unit": "µM"}]}, {"smiles": "Cc1c(F)cccc1C(F)(F)c1ccc(-c2nc(C34CCC(CO)(CC3)OC4)n3ccnc(N)c23)cc1", "note": "[Example 147]", "values": [{"measurement": "IC50", "setting": "BT474 cell proliferation", "result": 0.377, "unit": "µM"}]}, {"smiles": "Nc1nccn2c(C34CCC(CO)(CC3)OC4)nc(-c3ccc(C(F)(F)c4c(F)cccc4F)cc3)c12", "note": "[Example 153]", "values": [{"measurement": "IC50", "setting": "BT474 cell proliferation", "result": 0.121, "unit": "µM"}]}, {"smiles": "Nc1nccn2c(C34CCC(CO)(CC3)OC4)nc(-c3ccc(C(F)(F)c4ccccc4F)c(F)c3)c12", "note": "[Example 156]", "values": [{"measurement": "IC50", "setting": "BT474 cell proliferation", "result": 0.269, "unit": "µM"}]}, {"smiles": "Nc1nccn2c(C34CCC(CO)(CC3)OC4)nc(-c3ccc(C(O)(c4ccccc4)C(F)(F)F)cc3)c12", "note": "(centres unmarked) [Example 157]", "values": [{"measurement": "IC50", "setting": "BT474 cell proliferation", "result": 2.27, "unit": "µM"}]}, {"smiles": "Nc1nccn2c(C34CCC(CO)(CC3)OC4)nc(-c3ccc(C(F)(c4ccccc4)C(F)(F)F)cc3)c12", "note": "(centres unmarked) [Example 158]", "values": [{"measurement": "IC50", "setting": "BT474 cell proliferation", "result": 4.95, "unit": "µM"}]}, {"smiles": "Nc1nccn2c(C34CCC(CO)(CC3)OC4)nc(-c3ccc(C(c4ccccc4)(C(F)(F)F)C(F)(F)F)cc3)c12", "note": "[Example 159]", "values": [{"measurement": "IC50", "setting": "BT474 cell proliferation", "result": "> 1", "unit": "µM"}]}, {"smiles": "COc1ccc(F)cc1C(=O)NCc1ccc(-c2nn([C@@H](C)C(F)(F)F)c(N)c2C(N)=O)cc1", "note": "[LOXO-305]", "values": [{"measurement": "IC50", "setting": "TMD8 cell proliferation", "result": 0.184, "unit": "µM"}, {"measurement": "IC50", "setting": "DOHH2 cell proliferation", "result": 4.99, "unit": "µM"}]}, {"smiles": "CS(=O)(=O)CCNCc1ccc(-c2ccc3ncnc(Nc4ccc(OCc5cccc(F)c5)c(Cl)c4)c3c2)o1", "note": "[Lapatinib]", "values": [{"measurement": "IC50", "setting": "BT474 cell proliferation", "result": 0.0552, "unit": "µM"}]}, {"smiles": "CC#CC(=O)N1CC[C@@H](n2c(=O)n(-c3ccc(Oc4ccccc4)cc3)c3c(N)ncnc32)C1", "note": "[Tirabrutinib, reference compound]", "values": [{"measurement": "IC50", "setting": "TMD8 cell proliferation", "result": 0.158, "unit": "µM"}, {"measurement": "IC50", "setting": "DOHH2 cell proliferation", "result": 8.09, "unit": "µM"}, {"measurement": "microsomal CLint", "setting": "[2]", "result": 32.9, "unit": "µL/min/mg"}, {"measurement": "concentration at 1 h", "setting": "[3]; brain, time point 1 h, read-out: Drug concentration in brain tissue", "result": 84, "unit": "ng/g"}, {"measurement": "concentration at 2 h", "setting": "[3]; brain, time point 2 h, read-out: Drug concentration in brain tissue", "result": 31.1, "unit": "ng/g"}, {"measurement": "concentration at 4 h", "setting": "[3]; brain, time point 4 h, read-out: Drug concentration in brain tissue", "result": 13.3, "unit": "ng/g"}, {"measurement": "Kp at 1 h", "setting": "[3]; brain/plasma, time point 1 h, read-out: Brain tissue/plasma", "result": 0.118}, {"measurement": "Kp at 2 h", "setting": "[3]; brain/plasma, time point 2 h, read-out: Brain tissue/plasma", "result": 0.06}, {"measurement": "Kp at 4 h", "setting": "[3]; brain/plasma, time point 4 h, read-out: Brain tissue/plasma", "result": 0.054}, {"measurement": "concentration at 1 h", "setting": "[3]; plasma, time point 1 h, read-out: Plasma drug concentration", "result": 0.713, "unit": "µg/mL"}, {"measurement": "concentration at 2 h", "setting": "[3]; plasma, time point 2 h, read-out: Plasma drug concentration", "result": 0.515, "unit": "µg/mL"}, {"measurement": "concentration at 4 h", "setting": "[3]; plasma, time point 4 h, read-out: Plasma drug concentration", "result": 0.226, "unit": "µg/mL"}, {"measurement": "microsomal CLint", "setting": "[4]", "result": 13.1, "unit": "µL/min/mg"}]}]}
